“Also recorded” adds a separate entry of the source.
What was measured:
[1] = target: T1, mPIEZO1 (Mus musculus, UniProt E2JF22); test: Automated patch clamp (SyncroPatch 384) on mPIEZO1-TREx cells; type: cell-based; conditions: for Effect on M-Stim-evoked currents: mPIEZO1-TREx cells, −80 mV; for Cells responding to activation: mPIEZO1-TREx, 10 μM KC157, 10 μM Yoda1, 5 μM KC159
T1 construct: expressed in transfected cells
Experimental: For automated patch clamp, cells were cultured and harvested according to Nanion's standard cell culture protocol (Obergrussberger et al., [2014]). hPIEZO1‐TREx cells were induced to express PIEZO1 by incubation with 0.5 μg·ml^−1 tetracycline 24 h prior to experiments. Whole‐cell patch‐clamp recordings were conducted on HEK‐TREx, hPIEZO1‐TREx and mPIEZO1‐TREx cells according to Nanion's standard procedure for the SyncroPatch 384, using medium resistance (4–5 MΩ) chips (Obergrussberger et al., [2018]). Cells were held at −80 mV for the duration of the experiment. The channel was activated by mechanical forces in the absence and presence of the agonists. To stimulate PIEZO1 channels mechanically (mechanical stimulation [M‐Stim]), we dispensed 20 μl of solution (either reference or agonist) locally to the cell at a pipetting speed of 110 μl·s^−1 in synchrony with a triggered recording of the current response at the holding potential. The internal solution contained 110 mM KF, 10 mM KCl, 10 mM NaCl, 10 mM HEPES and 10 mM EGTA, pH adjusted to 7.2 with KOH, and the external solution contained 140 mM NaCl, 4 mM KCl, 2 mM CaCl2, 1 mM MgCl2, 5 mM glucose, 10 mM HEPES, pH adjusted to 7.4 with NaOH, and 0.1% DMSO to match the DMSO concentration of the compound solutions. For PIEZO1 stimulation, KC159, KC157 or Yoda1 was applied directly onto the cells via a pipette application. One chip of the SyncroPatch 384 is equipped with 384 wells served by 384 robotic pipettes and connected to 384 individual amplifiers, allowing us to test 384 distinct cells in one experiment. We tested the effect of each specified analogue on mPIEZO1‐, hPIEZO1‐ and untransfected HEK‐TREx cells in parallel and in comparison to mechanical and Yoda1 stimulation. To estimate the EC50 values, four concentrations of each agonist were tested per cell line in one chip, with each cell receiving single concentrations, and the concentration–response curve was calculated across the whole chip (384 cells). Only cells with seal resistance >0.3 GΩ, series resistance <20 MΩ and cell capacitance >5 and <40 pF were used for analysis.
DataControl 384 (Nanion Technologies GmbH), Prism 9 (GraphPad) and OriginPro 2020 (OriginLab) were used for all analysis of automated patch‐clamp data. For manual and automated patch‐clamp data, n represents the number of cells recorded from successfully in each experimental condition, sampled from two to six batches of cells or 384‐well chips in automated patch clamp. For manual patch‐clamp experiments, each cell/patch recording (n) is considered as an independent experiment because each was made independently at a separate time, using a separate coverslip of cells and using a separate patch pipette. In some instances, more than one such independent recording was made from the same batch of cultured or transfected cells. These n values are considered as independent. Each cell was studied alone and from a separate coverslip in the case for manual patch clamp. To estimate the EC50 values of the agonists in automated patch‐clamp studies, the peak current in the presence of the agonist was normalised to the peak current in the presence of the reference solution. Single‐point concentration–response curves were fitted with a standard Hill equation to estimate EC50 values. P < 0.05 was deemed significant. For automated patch‐clamp experiments, we included some data for n < 5 (Figure 7a,b). […] Such replicates are a feature of, and a rationale for, this automated technology, which is an innovation for the type of research shown here but already commonly used in the pharmaceutical industry for other ion channel studies to increase throughput and avoid waste from large volumes of independent cell cultures and minimise cost from expensive specially engineered plates. As a general strategy, our study used multiple independent technical approaches to address the same or similar questions. […]

[2] = tested on: HEK‐TREx control (null) cells; test: Manual whole-cell patch clamp on control cells; type: cell-based, human; conditions: 10 μM, HEK-TREx cells without PIEZO1 transfection
Experimental: For manual patch clamp, macroscopic transmembrane ionic currents of mPIEZO1 HEK‐TREx cells (or control HEK‐TREx cells) were recorded using the standard whole‐cell configuration for patch clamp in voltage‐clamp mode. For studies of HEK 293 cells overexpressing PIEZO2 (or control HEK 293 cells), the outside‐out patch configuration was used in voltage‐clamp mode. All recordings were made using an Axopatch 200B amplifier (Axon Instruments, Inc., USA) equipped with Digidata 1550B hosted by a PC running pClamp 10.7 software (Molecular Devices, USA) at room temperature. The cells were maintained during the experiment in an external salt buffer solution (SBS) of the following composition: 135 mM NaCl, 5 mM KCl, 1.5 mM CaCl2, 1.2 mM MgCl2, 8 mM D‐glucose and 10 mM HEPES (titrated to pH 7.4 with NaOH). […] For outside‐out experiments, Na2ATP and Na2GTP were omitted. For whole‐cell experiments, cells were held at 0 mV and current amplitude was monitored by application of ramp voltage protocol from −100 to +100 mV at 10 s intervals. Currents were measured at −100 and +100 mV. Test compounds were applied in the external solution using a bath perfusion system. SBS flow was applied to the cells for 1 min before the addition of compounds. […] Data were analysed and plotted using pClamp 10.7 and Microcal Origin 2018 (Microcal Software, USA).

[3] = tested on: mouse PIEZO2 (mPIEZO2); parameters: method as in Syeda et al., 2015; conditions: mPIEZO2 overexpressed in HEK 293 cells; ref Syeda et al., 2015; cited from earlier work
[4] = target: T2, Human recombinant prostanoid EP4 receptors (Homo sapiens, UniProt P35408); test: Eurofins Hit Profiling Screen PP70: prostanoid EP4 receptor binding; conditions: 5 μM
T2 construct: host or cells: Chem-1 cells
T2 sequence (P35408 whole entry): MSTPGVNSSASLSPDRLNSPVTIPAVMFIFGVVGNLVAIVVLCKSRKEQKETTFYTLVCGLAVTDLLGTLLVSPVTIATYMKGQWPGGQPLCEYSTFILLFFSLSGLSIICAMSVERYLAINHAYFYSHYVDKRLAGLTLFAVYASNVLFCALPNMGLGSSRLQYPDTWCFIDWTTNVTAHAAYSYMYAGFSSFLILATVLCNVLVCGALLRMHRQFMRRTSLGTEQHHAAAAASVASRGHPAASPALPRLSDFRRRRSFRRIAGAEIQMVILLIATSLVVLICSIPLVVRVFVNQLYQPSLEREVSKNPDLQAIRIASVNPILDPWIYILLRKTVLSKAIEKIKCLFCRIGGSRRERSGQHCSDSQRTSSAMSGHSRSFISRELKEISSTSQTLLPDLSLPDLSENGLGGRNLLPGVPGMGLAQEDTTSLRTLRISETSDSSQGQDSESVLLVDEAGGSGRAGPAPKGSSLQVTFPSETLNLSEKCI
Experimental: These experiments were performed by Eurofins Scientific, and the methods below are from this company's information. Membrane protein/membrane amounts may have varied, and the concentrations used were adjusted as necessary. KC289 was tested at 5 μM.
Human recombinant prostanoid EP4 receptors expressed in Chem‐1 cells were used in modified MES buffer pH 6.0. A 3 μg·ml^−1 (see footnote 1) aliquot was incubated with 1 nM [^3H]PGE2 for 120 min at 25°C. Non‐specific binding was estimated in the presence of 10 μM PGE2 . Receptors were filtered and washed, and the filters were then counted to determine [^3H]PGE2 specifically bound.

T1 sequence (E2JF22 whole entry): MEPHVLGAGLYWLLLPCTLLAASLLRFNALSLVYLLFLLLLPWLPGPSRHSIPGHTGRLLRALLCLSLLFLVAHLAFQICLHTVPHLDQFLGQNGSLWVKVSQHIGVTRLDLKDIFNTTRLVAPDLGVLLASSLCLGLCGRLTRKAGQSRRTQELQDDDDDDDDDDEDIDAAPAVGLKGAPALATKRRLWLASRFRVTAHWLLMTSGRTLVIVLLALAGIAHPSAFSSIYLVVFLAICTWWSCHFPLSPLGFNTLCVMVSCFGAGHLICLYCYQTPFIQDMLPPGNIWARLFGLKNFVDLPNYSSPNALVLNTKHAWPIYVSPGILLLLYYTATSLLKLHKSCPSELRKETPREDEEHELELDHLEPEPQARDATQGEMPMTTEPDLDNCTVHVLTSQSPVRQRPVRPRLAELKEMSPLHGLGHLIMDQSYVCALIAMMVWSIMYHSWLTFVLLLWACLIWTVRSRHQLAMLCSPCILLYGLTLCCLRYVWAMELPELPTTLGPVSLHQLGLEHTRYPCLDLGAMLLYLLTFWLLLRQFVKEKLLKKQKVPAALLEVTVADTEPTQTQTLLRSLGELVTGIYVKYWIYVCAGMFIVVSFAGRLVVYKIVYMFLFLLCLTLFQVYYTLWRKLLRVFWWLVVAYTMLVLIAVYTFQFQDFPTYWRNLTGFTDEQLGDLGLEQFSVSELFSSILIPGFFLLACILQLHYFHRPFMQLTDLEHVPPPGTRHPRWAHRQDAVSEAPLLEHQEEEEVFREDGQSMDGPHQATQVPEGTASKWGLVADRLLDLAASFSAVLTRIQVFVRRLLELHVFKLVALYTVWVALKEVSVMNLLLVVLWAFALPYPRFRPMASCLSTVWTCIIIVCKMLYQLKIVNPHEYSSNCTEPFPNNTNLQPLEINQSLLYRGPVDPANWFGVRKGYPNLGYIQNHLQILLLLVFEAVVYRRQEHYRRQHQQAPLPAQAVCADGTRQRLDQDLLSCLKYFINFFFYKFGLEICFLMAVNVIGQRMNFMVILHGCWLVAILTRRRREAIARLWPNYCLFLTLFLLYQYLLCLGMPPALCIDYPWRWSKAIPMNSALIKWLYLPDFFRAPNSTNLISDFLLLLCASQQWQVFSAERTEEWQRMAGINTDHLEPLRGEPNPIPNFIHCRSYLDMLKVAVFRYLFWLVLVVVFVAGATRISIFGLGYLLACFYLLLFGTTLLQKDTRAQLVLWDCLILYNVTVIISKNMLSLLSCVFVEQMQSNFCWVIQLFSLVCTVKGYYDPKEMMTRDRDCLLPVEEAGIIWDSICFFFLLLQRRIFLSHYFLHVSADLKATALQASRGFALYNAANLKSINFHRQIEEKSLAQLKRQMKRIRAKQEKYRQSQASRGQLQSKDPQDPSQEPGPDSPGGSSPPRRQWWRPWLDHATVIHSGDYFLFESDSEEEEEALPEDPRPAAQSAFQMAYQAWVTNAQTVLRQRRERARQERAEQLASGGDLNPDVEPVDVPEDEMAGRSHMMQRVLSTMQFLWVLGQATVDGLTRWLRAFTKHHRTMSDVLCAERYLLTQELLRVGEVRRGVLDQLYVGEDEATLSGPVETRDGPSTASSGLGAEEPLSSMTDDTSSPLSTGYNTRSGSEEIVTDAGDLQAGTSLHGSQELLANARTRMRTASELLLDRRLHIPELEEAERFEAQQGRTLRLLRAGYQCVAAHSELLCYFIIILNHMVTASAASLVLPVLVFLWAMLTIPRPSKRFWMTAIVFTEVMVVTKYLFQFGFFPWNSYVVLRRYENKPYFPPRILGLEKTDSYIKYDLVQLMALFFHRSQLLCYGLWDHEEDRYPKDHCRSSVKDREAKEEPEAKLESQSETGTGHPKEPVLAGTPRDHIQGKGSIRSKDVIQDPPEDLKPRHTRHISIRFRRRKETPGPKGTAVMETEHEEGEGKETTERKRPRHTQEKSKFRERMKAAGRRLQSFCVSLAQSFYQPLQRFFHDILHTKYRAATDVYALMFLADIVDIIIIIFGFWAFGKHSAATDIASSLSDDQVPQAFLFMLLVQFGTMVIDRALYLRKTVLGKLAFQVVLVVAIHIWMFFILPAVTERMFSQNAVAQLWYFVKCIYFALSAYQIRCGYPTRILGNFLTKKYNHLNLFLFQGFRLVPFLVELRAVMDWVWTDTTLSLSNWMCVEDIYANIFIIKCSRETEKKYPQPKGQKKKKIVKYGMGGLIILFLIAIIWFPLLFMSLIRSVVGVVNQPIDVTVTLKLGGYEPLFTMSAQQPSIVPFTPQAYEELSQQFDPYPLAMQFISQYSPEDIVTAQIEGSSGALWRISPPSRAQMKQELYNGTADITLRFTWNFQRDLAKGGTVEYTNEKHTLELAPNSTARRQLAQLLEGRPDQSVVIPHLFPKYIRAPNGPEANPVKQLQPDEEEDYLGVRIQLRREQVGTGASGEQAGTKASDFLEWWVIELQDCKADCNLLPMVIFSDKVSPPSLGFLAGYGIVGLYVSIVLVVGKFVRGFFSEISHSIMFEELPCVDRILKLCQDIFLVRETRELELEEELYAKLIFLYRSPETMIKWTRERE

## O=C(O)c1ccccc1-c1nnc(SCc2c(Cl)cccc2Cl)s1 [KC157]
[1]; 10 μM
  Effect on M-Stim-evoked currents: mostly fails to evoke responses
[1]
  Cells responding to activation: largely ineffective

## O=C(O)c1ccc(-c2nnc(SCc3c(Cl)cccc3Cl)s2)cc1 [KC159]
[2]
  Whole-cell current in null cells: not null cells
[1]; 10 μM
  Effect on M-Stim-evoked currents: greatly amplifies the currents
[1]; 10 μM, mPIEZO1 cells, mean ± SD
  Sustained component of current as % of the peak current amplitude: 26 ± 8%
[1]
  Cells responding to activation: more cells to respond compared with Yoda1
[1]; mouse PIEZO1, normalised peak current, maximum response not certain, read-out: EC50 (estimate)
  EC50: ~1540 nM

## Clc1cccc(Cl)c1CSc1nnc(-c2cnccn2)s1 [Yoda1, 2‐[5‐[[(2,6‐dichlorophenyl)methyl]thio]‐1,3,4‐thiadiazol‐2‐yl]pyrazine]
[3]
  Activation of PIEZO2: does not activate; also recorded: not to activate

## O=C([O-])c1ccc(-c2nnc(SCc3c(Cl)cccc3Cl)s2)cc1.[K+] [KC289]
[4]
  Binding to prostanoid EP4 receptors: modest interaction
